Test results published in patent publication US20090176841A1, “NOVEL 6-5 SYSTEM BICYCLIC HE[…] ITS PHAR[…]” (Sanwa Kagaku Kenkyusho Co., Ltd., priority 2006, published 2009).

Experiments:
recombinant human TRα = target: T1, recombinant human TRα (Homo sapiens, UniProt P10827); test: biochemical; conditions: TR[…] (IC50, nM), displacement of 125I-T3 (0.16 nM)
T1 sequence (P10827 190-410 isoform P10827-2): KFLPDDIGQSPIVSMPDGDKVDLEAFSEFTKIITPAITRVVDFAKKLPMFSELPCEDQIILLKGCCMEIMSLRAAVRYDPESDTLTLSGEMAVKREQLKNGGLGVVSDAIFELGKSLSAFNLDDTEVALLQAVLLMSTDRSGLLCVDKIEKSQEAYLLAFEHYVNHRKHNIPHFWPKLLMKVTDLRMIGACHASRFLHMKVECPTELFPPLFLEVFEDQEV
Text: (§1) Thyroid Hormone Receptor Binding Test
(§2) (1) Preparation of Fused Protein Having Ligand Binding Region of Thyroid Hormone Receptor
(§3) Human TRα and human TRβ ligand binding domains were expressed in Escherichia coli as a fused protein (recombinant human TRα or recombinant human TRβ) having TRα and TRβ ligand binding domains at a C-terminus of His-Patch Thioredoxin using the His-Patch Thioredoxin fusing protein expressing system (Invitrogen).
(§4) A nucleotide sequence of a region corresponding to the fused protein was confirmed by DNA sequence analysis.
(§5) Escherichia coli by which the fused protein had been subjected to expression inducement were collected by a centrifugation method, and ground using ultrasound to prepare a ground cell liquid containing the fused protein. The ground cell liquid was centrifuged at 15000 rpm for about 30 minutes, and a solution containing the fused protein from the supernatant using a nickel chelating column was obtained. An NAP-10 column was replaced with a binding solution (20 mM, Tris-HCl, 0.15 M NaCl, 8% Glycerol, 0.1% BSA, 1 mM EDTA, 10 mM 2-melcaptethanol). The resulting binding solution containing the fused protein was frozen and stored at −70° C. or lower.
(§6) (2) Binding Affinity for Thyroid Hormone Receptor
(§7) This binding solution (60 μL) was added to all wells of a 96-well plate (MILLIPORE MultiScreen-HV, Cat. No. MANVN4550, Lot. No. F4SN86613). […] 80 μL of SephadexG25 was added to each well of MultiScreen-HV (MILLIPORE, Cat. No. MANVN4550, Lot. No. F4SN86613), the binding solution was added to sufficiently swell, and this was centrifuged at 600×g for 1 minute to prepare a column of SephadexG25. […] Again, 25 μL untreated binding solution was overlaid on the SephadexG25 column, and this was immediately centrifuged at 600×g for 1 minute. […] As an amount of recombinant human TRα or recombinant human TRβ used in the present test, an amount by which proper radioactivity is obtained in a range where an addition amount of the receptor and an amount of the complex in the above test system, was used.
(§8) This was divided by the total complex amount to calculate a binding rate as the following equation:
(§9) Binding rate=remaining complex amount/total complex amount

recombinant human TRβ = target: T2, recombinant human TRβ (Homo sapiens, UniProt P10828); test: biochemical; conditions: TR[…] (IC50, nM), displacement of 125I-T3 (0.16 nM)
T2 sequence (P10828 244-461): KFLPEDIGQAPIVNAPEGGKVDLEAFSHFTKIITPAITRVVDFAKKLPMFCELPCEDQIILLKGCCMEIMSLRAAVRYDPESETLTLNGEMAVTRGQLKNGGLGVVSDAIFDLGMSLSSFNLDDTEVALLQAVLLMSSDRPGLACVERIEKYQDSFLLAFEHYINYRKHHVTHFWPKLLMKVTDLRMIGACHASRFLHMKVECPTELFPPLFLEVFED
Text: as §1, §2, §3, §4, §5, §6, §7, §8, §9

SMILES | IC50 (recombinant human TRα) | IC50 (recombinant human TRβ)
Cc1ccc(NC(=O)CC(=O)O)c2cc(C)n(Cc3ccc(O)c(C(O)c4ccc(F)cc4)c3)c12 (single isomer, unassigned; (+)) [Example 130, (+)-N-(1-{3-[(4-fluorophenyl)hydroxymethyl]-4-hydroxybenzyl}-2,7-dimethyl-1H-indol-4-yl)malonamic acid] | 5200 nM | 150 nM
Cc1ccc(NC(=O)CC(=O)O)c2cc(C)n(Cc3ccc(O)c(C(O)c4ccc(F)cc4)c3)c12 (single isomer, unassigned; (-)) [Example 131, (−)-N-(1-{3-[(4-fluorophenyl)hydroxymethyl]-4-hydroxybenzyl}-2,7-dimethyl-1H-indol-4-yl)malonamic acid] | 99 nM | 7.1 nM
CCOC(=O)C(=O)Nc1cccc2c1ccn2Cc1ccc(O)c(C(C)C)c1 [Example 1, Ethyl N-[1-(4-hydroxy-3-isopropylbenzyl)-1H-indol-4-yl]oxamate] | 1500 nM | 220 nM
CCOC(=O)C(=O)Nc1cccc2c1cc(C)n2Cc1ccc(O)c(C(C)C)c1 [Example 8] | 370 nM | 72 nM
CCOC(=O)C(=O)Nc1ccc(C)c2c1ccn2Cc1ccc(O)c(C(C)C)c1 [Example 15] | 490 nM | 60 nM
CCOC(=O)C(=O)Nc1cccc2c1c(C)c(C)n2Cc1ccc(O)c(C(C)C)c1 [Example 19] | 280 nM | 56 nM
CCOC(=O)C(=O)Nc1ccc(C)c2c1cc(C)n2Cc1ccc(O)c(C(C)C)c1 [Example 21] | 37 nM | 6.3 nM
CCOC(=O)CC(=O)Nc1ccc(C)c2c1cc(C(F)(F)F)n2Cc1ccc(O)c(C(C)C)c1 [Example 26] | 3400 nM | 310 nM
CCc1cc2c(NC(=O)Cc3nnn[nH]3)cccc2n1Cc1ccc(O)c(C(C)C)c1 [Example 41] | > 10000 nM | 650 nM
Cc1ccc(NC(=O)Cc2nnn[nH]2)c2ccn(Cc3ccc(O)c(C(C)C)c3)c12 [Example 42] | 8200 nM | 150 nM
Cc1ccc(NC(=O)Cc2nnn[nH]2)c2cc(C)n(Cc3ccc(O)c(C(C)C)c3)c12 [Example 43] | 450 nM | 8.5 nM
CCOC(=O)C(=O)Nc1ccc(C)c2c1ccn2Cc1ccc(O)c(C(O)c2ccc(F)cc2)c1 (stereo not drawn) [Example 56, Ethyl N-(1-{3-[(4-fluorophenyl)hydroxymethyl]-4-hydroxybenzyl}-7-methyl-1H-indol-4-yl)oxamate] | 480 nM | 84 nM
CCOC(=O)CC(=O)Nc1ccc(C)c2c1cc(C)n2Cc1ccc(O)c(C(O)c2ccc(F)cc2)c1 (stereo not drawn) [Example 57, Ethyl N-(1-{3-[(4-fluorophenyl)hydroxymethyl]-4-hydroxybenzyl}-2,7-dimethyl-1H-indol-4-yl)malonamate] | 3800 nM | 24 nM
CC(C)c1cc(Cn2ccc3c(NC(=O)C(=O)O)cccc32)ccc1O [Example 63, N-[1-(4-hydroxy-3-isopropylbenzyl)-1H-indol-4-yl]oxamic acid] | 1200 nM | 170 nM
Cc1ccc(NC(=O)CC(=O)O)c2cc(C)n(Cc3ccc(O)c(Br)c3)c12 [Example 65] | > 10000 nM | 470 nM
CC(C)c1cc(Cn2ccc3c(NC(=O)CC(=O)O)cccc32)ccc1O [Example 69] | > 10000 nM | 430 nM
Cc1cc2c(NC(=O)C(=O)O)cccc2n1Cc1ccc(O)c(C(C)C)c1 [Example 72] | 230 nM | 40 nM
Cc1cc2c(NC(=O)CC(=O)O)cccc2n1Cc1ccc(O)c(C(C)C)c1 [Example 73] | 5100 nM | 210 nM
Cc1cc2c(OCC(=O)O)cccc2n1Cc1ccc(O)c(C(C)C)c1 [Example 74] | 2700 nM | 200 nM
CCc1cc2c(NC(=O)CC(=O)O)cccc2n1Cc1ccc(O)c(C(C)C)c1 [Example 75] | > 10000 nM | 550 nM
CC(C)c1cc(Cn2c(C(F)(F)F)cc3c(NC(=O)CC(=O)O)cccc32)ccc1O [Example 76] | 610 nM | 67 nM
CC(C)c1cc(Cn2ccc3c(NC(=O)CC(=O)O)cc(Br)cc32)ccc1O [Example 77] | > 10000 nM | 570 nM
CC(C)c1cc(Cn2ccc3c(NC(=O)CC(=O)O)ccc(Cl)c32)ccc1O [Example 78] | 230 nM | 36 nM
Cc1ccc(NC(=O)C(=O)O)c2ccn(Cc3ccc(O)c(C(C)C)c3)c12 [Example 79] | 5200 nM | 130 nM

SMILES | IC50 (recombinant human TRα) | IC50 (recombinant human TRβ)
Cc1ccc(NCCC(=O)O)c2ccn(Cc3ccc(O)c(C(C)C)c3)c12 [Example 82] | 1600 nM | 1100 nM
Cc1c(C)n(Cc2ccc(O)c(C(C)C)c2)c2cccc(NC(=O)C(=O)O)c12 [Example 83] | 85 nM | 27 nM
Cc1ccc(NC(=O)C(=O)O)c2cc(C)n(Cc3ccc(O)c(C(C)C)c3)c12 [Example 85] | 24 nM | 3.1 nM
Cc1ccc(NC(=O)CC(=O)O)c2cc(C)n(Cc3ccc(O)c(C(C)C)c3)c12 [Example 86] | 670 nM | 16 nM
Cc1ccc(NC(=O)C(F)C(=O)O)c2cc(C)n(Cc3ccc(O)c(C(C)C)c3)c12 (stereo not drawn) [Example 88] | 120 nM | 13 nM
Cc1ccc(NC(=O)C(C)C(=O)O)c2cc(C)n(Cc3ccc(O)c(C(C)C)c3)c12 (stereo not drawn) [Example 89] | 870 nM | 120 nM
Cc1ccc(NC(=O)CCC(=O)O)c2cc(C)n(Cc3ccc(O)c(C(C)C)c3)c12 [Example 93] | 650 nM | 260 nM
Cc1ccc(NC(=O)CC(=O)O)c2cc(C(F)(F)F)n(Cc3ccc(O)c(C(C)C)c3)c12 [Example 95] | 98 nM | 5 nM
Cc1ccc(NC(=O)CC(=O)O)c2cc(C)n(Cc3ccc(O)c(Cc4ccc(F)cc4)c3)c12 [Example 100] | 600 nM | 28 nM
Cc1ccc(NC(=O)C(=O)O)c2cc(C)n(Cc3ccc(O)c(CCc4ccccc4)c3)c12 [Example 101] | 2200 nM | 390 nM
Cc1cc(Cn2ccc3c(NC(=O)C(=O)O)ccc(C)c32)cc(C)c1O [Example 103] | 3200 nM | 860 nM
CC(C)c1cc(Cn2ccc3cc(NC(=O)C(=O)O)ccc32)ccc1O [Example 105] | 970 nM | 260 nM
Cc1cc(NC(=O)C(=O)O)cc2ccn(Cc3ccc(O)c(C(C)C)c3)c12 [Example 108] | 190 nM | 54 nM
Cc1cc(NC(=O)CC(=O)O)cc2ccn(Cc3ccc(O)c(C(C)C)c3)c12 [Example 109] | > 10000 nM | 600 nM
CC(C)c1cc(Cn2ncc3c(NC(=O)C(=O)O)cccc32)ccc1O [Example 111] | > 10000 nM | 1400 nM
CC(C)c1cc(Cc2c[nH]c3c(NC(=O)CC(=O)O)cccc23)ccc1O [Example 113] | > 10000 nM | 320 nM
Cc1ccc(NC(=O)C(=O)O)c2cc(C)n(Cc3ccc(O)c(C(F)(F)F)c3)c12 [Example 114] | 180 nM | 49 nM
Cc1ccc(NC(=O)CC(=O)O)c2cc(C)n(Cc3ccc(O)c4ccccc34)c12 [Example 115] | 3600 nM | 130 nM
CCCc1cc(Cn2c(C)cc3c(NC(=O)C(=O)O)ccc(C)c32)ccc1O [Example 116] | 52 nM | 9.2 nM
CCCc1cc(Cn2c(C)cc3c(NC(=O)CC(=O)O)ccc(C)c32)ccc1O [Example 117] | 640 nM | 36 nM
CCc1cc2c(NC(=O)C(=O)O)cccc2n1Cc1ccc(O)c(C(C)C)c1 [Example 118] | 280 nM | 91 nM
CC(C)c1cc(Cn2c(C(F)(F)F)cc3c(NC(=O)C(=O)O)cccc32)ccc1O [Example 119] | 57 nM | 15 nM
CC(C)c1cc(Cn2ccc3c(NC(=O)C(=O)O)cc(Br)cc32)ccc1O [Example 120] | 380 nM | 63 nM
CCC(C)c1cc(Cn2c(C)cc3c(NC(=O)C(=O)O)ccc(C)c32)ccc1O (stereo not drawn) [Example 122] | 24 nM | 2.6 nM
